In article PMC10154249, “Unique progerin C-terminal peptide ameliorates Hutchinson–Gilford progeria syndrome phenotype by rescuing BUBR1” (Nature Aging, 2023):

Columns and labels:
[1] = system: lamin B1, p21 and IL-6 in skin of Lmna^G609G/G609G mice; assay: IHC of lamin B1, p21 and IL-6 in skin of Lmna^G609G/G609G mice; type: in vivo, mouse; settings: for p21 positive cells / IL-6 positive cells / LaminB1 positive cells: LmnaG609G/G609G+UPCP; for p21 positive cells: P=0.0003 vs LmnaG609G/G609G-Mock; for IL-6 positive cells: P=0.0012 vs LmnaG609G/G609G-Mock; for LaminB1 positive cells: P=0.0142 vs LmnaG609G/G609G-Mock
Protocol: For UPCP injection, 14-day-old Lmna^G609G/G609G mice were injected intraperitoneally with either PBS or UPCP (20 mg kg^–1, every other day) and wild-type mice were injected with PBS. All phenotypic analyses were performed after 12 weeks of treatment with UPCP. Bodyweight and lifespan were monitored after UPCP treatment. The survival rate was analyzed by the Kaplan–Meier method. We only included mice that were of sufficient bodyweight at the start of the experiment, typically at least 80% of the average littermate weight of the same sex and genotype. All animals meeting criteria for inclusion were then divided randomly into three groups according to genotype (Lmna^+/+, Lmna^G609G/G609G-Mock and Lmna^G609G/G609G-UPCP).
For histological analyses, mice of the indicated genotypes were perfused with PBS, then with 4% paraformaldehyde (PFA). Whole organs were incubated in 4% PFA at 4 °C for 16 h. All samples were paraffin embedded and sectioning by Servicebio. Subsequently, the tissues were deparaffinized and rehydrated before hematoxylin-eosin (HE) or Masson staining or immunohistochemistry (IHC). HE staining was performed using an HE Kit (Absin, catalog no. abs9217), and Masson staining was performed using Masson’s Trichrome Stain Kit (Absin, catalog no. abs9347) according to the manufacturer’s instructions. The thickness of the layers or the areas of fibrosis in the tissues were calculated using ImageJ software by a blinded investigator. For IHC, the sections were completed by the Servicebio. The images were acquired by a microscope (Leica DMi8) and analyzed with Leica Application Suite X v.3.6.0.24 (Leica). For BubR1, cytoplasmic staining in cells was scored on the intensity of staining and the proportion of positive cells by a blinded investigator. The intensity of the staining was graded as 0 (negative, no color), 1 (low positive, light yellow), 2 (positive, brown yellow) or 3 (high positive, brown), and the number of positive cells was graded as 0 (<5%), 1 (5–25%), 2 (25–50%), 3 (51–75%) or 4 (>75%). The final score was defined as staining number score multiplied by staining color score. For lamin B1, p21 or IL-6, the proportion of positive cells was used to quantify the expression of protein in tissues by a blinded investigator.

PTBP1 in HGADFN003 cells = assay: PTBP1 nuclear membrane localization in HGADFN003 cells; type: cell-based, human; settings: HGADFN003, UPCP
Protocol: Immunofluorescence was performed as described previously. Cells were plated on cover slips in 12-well plates, left overnight before the treatment. Cells were fixed in 1% formaldehyde in culture medium for 10 min at 37 °C and permeabilized with 0.2% Triton X-100 in PBS for 10 min at room temperature. Cells were washed twice in PBS and blocked for 1 h with 5% BSA in PBS and then incubated with primary antibodies at 4 °C overnight, washed three times in PBS and incubated with secondary antibodies for 1 h at room temperature. Cell nuclei were counterstained with a 500 nM concentration of 4,6-diamidino-2-phenylindole (DAPI) (Sigma). Images were acquired by a fluorescence microscope (OLYMPUS FV-1000, Carl Zeiss LSM880 or Leica DMi8) and analyzed with software NIS-Elements AR v.5.0.1 (Nikon), FLUOVIEW v.4.2b (OLYMPUS), ZEN v.2.3 SP1 (Carl Zeiss) and Leica Application Suite X v.3.6.0.24 (Leica). Cells were quantified by investigators who were blinded to the identity of the analyzed cell.

[2] = system: BUBR1, HMGA1, KDM1A, ZNF143 and FOXM1 mRNA; assay: RT-PCR of BUBR1 and its transcription factors in HGADFN003 cells; type: cell-based, human; settings: for BUBR1 relative (to β-actin) mRNA level (2-ΔΔCt) / FOXM1 relative (to β-actin) mRNA level (2-ΔΔCt) / HMGA1 relative (to β-actin) mRNA level (2-ΔΔCt) / KDM1A relative (to β-actin) mRNA level (2-ΔΔCt) / ZNF143 relative (to β-actin) mRNA level (2-ΔΔCt): Fig. 4a, HGADFN003, vs Mock = 1; for BUBR1 relative (to β-actin) mRNA level (2-ΔΔCt): P=0.0003; for FOXM1 relative (to β-actin) mRNA level (2-ΔΔCt): P=0.2399; for HMGA1 relative (to β-actin) mRNA level (2-ΔΔCt): P=0.9214; for KDM1A relative (to β-actin) mRNA level (2-ΔΔCt): P=0.683; for ZNF143 relative (to β-actin) mRNA level (2-ΔΔCt): P=0.9897
Protocol: RNA preparation was performed as described. Total RNA was extracted using Trizol reagent (TaKaRa) following the manufacturer’s instructions. cDNA was generated with M-MLV reverse transcriptase (Promega, catalog no. M170B). Reverse transcription with PCR (RT-PCR) was performed with SYBR Green Real-Time PCR Master Mix (TaKaRa). RT-PCR was carried out on a QuantStudio 3 Real-Time-PCR Instrument (ABI). Data were analyzed and further processed in QuantStuido Design and Analysis Software and GraphPad Prism v.7. Fold change in gene expression over control samples was calculated using the 2^–ΔΔCt method, where β-actin Ct values were used as an internal control. The primer sequences for PCR, synthesized by Comate Bioscience, were as follows:
β-actin_fwd (5′-[…]-3′) and β-actin_rev (5′-[…]-3′); AURKB_fwd (5′-[…]-3′) and AURKB_rev (5′-[…]-3′); BUB1_ fwd (5′-[…]-3′) and BUB1_rev (5′-[…]-3′); BUB1B_fwd (5′-[…]-3′) and BUB1B_ rev (5′-[…]-3′); CCNA2_fwd (5′-[…]-3′) and CCNA2_ rev (5′-[…]-3′); Mad2l1_fwd (5′-[…]-3′) and Mad2l1_ rev (5′-[…]-3′); TTK1_fwd (5′-[…]-3′) and TTK1_ rev (5′-[…]-3′); PLK1_fwd (5′-[…]-3′) and PLK1_ rev (5′-[…]-3′); PTBP1_fwd (5′-[…]-3′) and PTBP1_ rev (5′-[…]-3′); HMGA1_fwd (5′-[…]-3′) and HMGA1_ rev (5′-[…]-3′); KDM1A1_fwd (5′-[…]-3′) and KDM1A1_ rev (5′-[…]-3′); ZNF143_fwd (5′-[…]-3′) and ZNF143_ rev (5′-[…]-3′); FOXM1_fwd (5′-[…]-3′) and FOXM1_ rev (5′-[…]-3′).

[3] = skin, 20 mg kg^–1 i.p. every other day

Question: Which results are given for “H-YGRKKRRQRRRYNLRSRTVLCGTCGQPADKASASGSGAQSPQNCSIM-OH (cysteines drawn unpaired) [UPCP, unique progerin C-terminal peptide]”?
Answer: p21 positive cells ([1]; replicate 1): 0.2237; IL-6 positive cells ([1]; replicate 1): 0.4348; LaminB1 positive cells ([1]; replicate 1): 0.5254; p21 positive cells ([1]; replicate 2): 0.3636; IL-6 positive cells ([1]; replicate 2): 0.5192; LaminB1 positive cells ([1]; replicate 2): 0.7647; p21 positive cells ([1]; replicate 3): 0.2043; IL-6 positive cells ([1]; replicate 3): 0.5517; LaminB1 positive cells ([1]; replicate 3): 0.3729; p21 positive cells ([1]; replicate 4): 0.2308; IL-6 positive cells ([1]; replicate 4): 0.5702; LaminB1 positive cells ([1]; replicate 4): 0.6429; p21 positive cells ([1]; replicate 5): 0.3175; IL-6 positive cells ([1]; replicate 5): 0.5897; LaminB1 positive cells ([1]; replicate 5): 0.6739; p21 positive cells ([1]; replicate 6): 0.1875; IL-6 positive cells ([1]; replicate 6): 0.375; LaminB1 positive cells ([1]; replicate 6): 0.598; number of lamin B1 positive cells [1, 3]: increase the number of lamin B1 positive cells; p21 and IL-6 expression [1, 3]: reduce p21 and IL-6 expression in the skin; PTBP1 nuclear membrane location cells (PTBP1 in HGADFN003 cells; replicate 1): 45%; PTBP1 nuclear membrane location cells (PTBP1 in HGADFN003 cells; replicate 2): 39%; PTBP1 nuclear membrane location cells (PTBP1 in HGADFN003 cells; replicate 3): 35%; BUBR1 relative (to β-actin) mRNA level (2-ΔΔCt) ([2]; replicate 1): 5.569; BUBR1 relative (to β-actin) mRNA level (2-ΔΔCt) ([2]; replicate 2): 6.327; BUBR1 relative (to β-actin) mRNA level (2-ΔΔCt) ([2]; replicate 3): 4.947; FOXM1 relative (to β-actin) mRNA level (2-ΔΔCt) ([2]; replicate 1): 1.5201; FOXM1 relative (to β-actin) mRNA level (2-ΔΔCt) ([2]; replicate 2): 2.139; FOXM1 relative (to β-actin) mRNA level (2-ΔΔCt) ([2]; replicate 3): 0.8641; HMGA1 relative (to β-actin) mRNA level (2-ΔΔCt) ([2]; replicate 1): 0.9058; HMGA1 relative (to β-actin) mRNA level (2-ΔΔCt) ([2]; replicate 2): 1.8337; HMGA1 relative (to β-actin) mRNA level (2-ΔΔCt) ([2]; replicate 3): 0.3934; KDM1A relative (to β-actin) mRNA level (2-ΔΔCt) ([2]; replicate 1): 0.9262; KDM1A relative (to β-actin) mRNA level (2-ΔΔCt) ([2]; replicate 2): 0.9644; KDM1A relative (to β-actin) mRNA level (2-ΔΔCt) ([2]; replicate 3): 1.24; ZNF143 relative (to β-actin) mRNA level (2-ΔΔCt) ([2]; replicate 1): 0.3607; ZNF143 relative (to β-actin) mRNA level (2-ΔΔCt) ([2]; replicate 2): 1.774; ZNF143 relative (to β-actin) mRNA level (2-ΔΔCt) ([2]; replicate 3): 0.8819; BUBR1 mRNA expression ([2]; RT-PCR, HGADFN003 cells): could upregulate expression of BUBR1; expression of transcription factors regulating BUBR1 ([2]; RT-PCR, HGADFN003 cells): had little effect on their expression
